Tests used:
[1] = test system: OPM2-Luc tumor xenografts; assay: OPM2-Luc xenograft efficacy, once daily dosing; type: in vivo, mice; details: for animals tumor free: day 24
Protocol: OPM2-Luc cells (5×10^6) were implanted subcutaneously into female athymic nude mice. […] Three of 10 animals in the 30 mg/kg group and 10 of 10 animals in the 60 mg/kg group were tumor free on day 24.

[2] = molecular target: T1, MCL1-BAK protein-protein interaction (Homo sapiens, UniProt Q07820); assay: MCL1-BAK protein-protein interaction PD assay, HEK 293M MCL1(1-327)-Luc/BAK-Luc Matrigel plug model in mice; type: in vivo; details: for inhibition of MCL1-BAK protein-protein interaction, as measured by luciferase activity: 2-, vs vehicle p<0.0025, female athymic nude mice
T1 construct: human MCL1 encoding amino acids 1-327 and full-length human BAK; expressed in transfected cells; host or cells: HEK 293M cells, stably transfected, in Matrigel plugs in female athymic nude mice
T1 sequence (Q07820 1-327): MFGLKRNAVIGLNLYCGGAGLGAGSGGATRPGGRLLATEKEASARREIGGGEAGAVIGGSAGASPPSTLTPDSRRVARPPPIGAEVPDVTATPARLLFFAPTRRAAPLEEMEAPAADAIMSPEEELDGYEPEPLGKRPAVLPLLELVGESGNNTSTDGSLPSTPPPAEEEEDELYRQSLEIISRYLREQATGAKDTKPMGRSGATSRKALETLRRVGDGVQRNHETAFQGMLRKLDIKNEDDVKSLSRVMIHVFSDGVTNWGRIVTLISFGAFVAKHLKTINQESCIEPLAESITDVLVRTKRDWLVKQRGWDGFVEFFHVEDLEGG
Source text: The inhibition of MCL1-BAK protein-protein interaction was used as a pharmacodynamics (PD) assay in HEK 293M cells stably transfected so as to express the N-terminal fragment of human MCL1 encoding amino acids 1-327 and full-length human BAK, linked to the N- and C-terminal fragments of firefly luciferase, respectively (interaction between MCL1 [1-327] and BAK results in the complementation of the C- and N-terminal fragments of luciferase and the formation of active luciferase).

[3] = test system: OPM2-Luc tumor xenografts; assay: OPM2-Luc xenograft efficacy, intermittent dosing; type: in vivo; details: for animals tumor free: day 26
Protocol: OPM2-Luc cells (5×10^6) were implanted subcutaneously into female athymic nude mice. […] With all tested doses and schedules, dose-dependent TGI was observed (FIG. 5). […] Six of 10 animals in the 60 mg/kg 5 days on/2 days off group and 10 of 10 animals in the once daily group were tumor free on day 26.

[4] = test system: Adult patients with relapsed or refractory AML; assay: Dose-escalation study in relapsed or refractory AML, data cutoff May 17, 2019; type: in vivo
Protocol: Escalating doses started at 60 mg/m^2. For dose levels ≥180 mg/m^2, a lead-in dose of 120 mg/m^2 was implemented during week 1. Primary objectives included the evaluation of safety, tolerability, and pharmacokinetics. The secondary objective was a preliminary evaluation of efficacy, assessed using ELN criteria. Exploratory endpoints included pharmacodynamic evaluation of MCL-1 inhibition in circulating AML blasts.

[5] = test system: subjects with relapsed/refractory multiple myeloma; assay: Phase 1 FIH study, multiple myeloma part 1a (QD2); type: in vivo, human
Protocol: (§1) In part 1a, subjects were enrolled across 8 cohorts, with doses ranging from 30 to 240 mg/m^2 QD2. In part 1b, subjects were enrolled across 2 cohorts, with doses of 120/180-mg/m^2 or 120/240-mg/m^2.

dog blood = assay: In vitro hemolysis of whole blood, dog; details: 0.1 and 1.0 mg/mL, vehicles containing hydroxypropyl-β-cyclodextrin
[6] = test system: subjects with relapsed/refractory multiple myeloma; assay: Phase 1 FIH study, multiple myeloma part 1b (QW); type: in vivo, human
Protocol: as §1

MM1S = assay: Cell viability (CellTiterGlo), MM1S; type: cell-based; details: Homo sapiens, MM1.S, Multiple myeloma, 24 hours, 10% FBS, read-out: AMS 176 IC50
Pharmacokinetics in rats = details: male, Sprague Dawley, rat, in vivo, read-out: mean terminal elimination half-life (t1/2,z) (converted)
Source text: The pharmacokinetics (PK) of the compound of Formula I after single intravenous (IV) or oral administration were characterized in male CD1 mice, female athymic nude mice, male Nu/Nu mice, male Sprague Dawley rats, male beagle dogs, and male cynomolgus monkeys. The clearance (CL) of the compound was low in mice, rats, dogs, and monkeys relative to their hepatic blood flow. Volume of distribution at steady state (Vss) in mice, rats, dogs, and monkeys was variable across the species.

RL = assay: Cell viability (CellTiterGlo), RL; type: cell-based; details: Homo sapiens, NHL, 24 hours, 10% FBS, high dose 20 μM, read-out: AMS 176 IC50
[7] = TEAEs occurring in ≥2 patients, N = 11

CO[C@H]1/C=C/C[C@H](C)[C@@H](C)S(=O)(=O)NC(=O)c2ccc3c(c2)N(C[C@@H]2CC[C@H]21)C[C@@]1(CCCc2cc(Cl)ccc21)CO3 [AMG 176]
TGI ([1]; 20 mg/kg once daily oral gavage, p<0.001): 63% | effect on established OPM2-Luc tumors ([1]; 30 mg/kg and 60 mg/kg orally once daily, summary statement): tumor regression | tumor regression ([1]; 30 mg/kg once daily oral gavage, p<0.001): 50% | animals tumor free ([1]; 30 mg/kg once daily): Three of 10 | tumor regression ([1]; 60 mg/kg once daily oral gavage, p<0.0001): 100% | animals tumor free ([1]; 60 mg/kg once daily): 10 of 10 | changes in body weight and body score assessment ([1]; 10-60 mg/kg once daily oral gavage): no evidence of AMG 176-related changes | inhibition of MCL1-BAK protein-protein interaction, as measured by luciferase activity ([2]; 3 mg/kg, 8-, 12-, and 24-hour time points): Statistically significant inhibition | inhibition of MCL1-BAK protein-protein interaction, as measured by luciferase activity ([2]; 10 mg/kg, 4-, 8-, and 12-hour time points): Statistically significant inhibition | inhibition of MCL1-BAK protein-protein interaction, as measured by luciferase activity ([2]; 30 mg/kg, 4-, 8-, 12-, and 24-hour time points): Statistically significant inhibition | inhibition of the interaction between human MCL1 and human BAK in vivo ([2]; summary statement): dose-dependent inhibition | TGI ([3]; 30 mg/kg 2 days on/5 days off): 54% | TGI ([3]; 30 mg/kg 5 days on/2 days off): 85% | effect on growth of established OPM2-Luc tumors ([3]; 30 mg/kg and 60 mg/kg, two days on/5 days off and 5 days on/2 days off, summary statement): significantly inhibited the growth | TGI ([3]; 30 mg/kg once daily oral gavage): 84% | tumor regression ([3]; 60 mg/kg 2 days on/5 days off): 21% | tumor regression ([3]; 60 mg/kg 5 days on/2 days off): 87% | animals tumor free ([3]; 60 mg/kg 5 days on/2 days off): Six of 10 | tumor regression ([3]; 60 mg/kg once daily): 100% | animals tumor free ([3]; 60 mg/kg once daily): 10 of 10 | overt toxicity by body weight and body score assessment ([3]; 30 or 60 mg/kg, all schedules): No evidence of overt toxicity | plasma exposures versus dose ([4]; 60-180 mg/m^2): increased in a dose-related manner | Treatment-related AEs, patients ([4]; AML, 11 patients): 46% | fatal adverse events ([4]; AML, 11 patients): No fatal adverse events were observed | grade ≥3 TEAEs, patients ([4]; AML, 11 patients): 73% | grade ≥3 anemia ([4]; AML, 11 patients): 18% | grade ≥3 treatment-related AEs, patients ([4]; AML, 11 patients): 18% | nausea, any grade ([4]; AML, 11 patients): 36% | peripheral edema, any grade ([4]; AML, 11 patients): 36% | TEAEs of any grade, patients ([4]; AML, 11 patients, 60-180 mg/m^2 IV): 91% | Anemia, Grade ≥3 ([4]; Grade ≥3 TEAEs occurring in ≥2 patients, N = 11): 2 (18.2) n (%) | time of maximum plasma concentrations ([4]; IV infusion over a minimum of 2 hours): close to the end of intravenous infusion | All TEAEs ([4]; Patients (N = 11)): 10 (90.9) n (%) | TEAEs Fatal ([4]; Patients (N = 11)): 0 n (%) | TEAEs Grade ≥3 ([4]; Patients (N = 11)): 8 (72.7) n (%) | TEAEs Serious ([4]; Patients (N = 11)): 8 (72.7) n (%) | Anemia [4, 7]: 2 (18.2) n (%) | Hypokalemia [4, 7]: 2 (18.2) n (%) | Hypomagnesemia [4, 7]: 2 (18.2) n (%) | Increased blood bilirubin level [4, 7]: 2 (18.2) n (%) | Nausea [4, 7]: 4 (36.4) n (%) | Peripheral edema [4, 7]: 4 (36.4) n (%) | Vomiting [4, 7]: 2 (18.2) n (%) | maximum tolerated dose ([4]; at the data cutoff date): not yet reached | safety, tolerability, and pharmacokinetic profile ([4]; monotherapy, dose levels evaluated): acceptable | pharmacodynamic impact in peripheral blood AML blasts ([4]; patient achieving CRi, 3 hours postinfusion): release of the proapoptotic protein Bax and activation of effector caspase 3 | Grade 3 adverse events, subjects ([5]; MM part 1a): 65% | Serious adverse events, subjects ([5]; MM part 1a): 31% | adverse events considered related to AMG 176, subjects ([5]; MM part 1a): 69% | adverse events leading to discontinuation of investigational product ([5]; MM part 1a): No adverse event led to discontinuation | anemia of grade 3 or higher ([5]; MM part 1a): 15% | decreased neutrophil count of grade 3 or higher ([5]; MM part 1a): 8% | decreased white blood cell count of grade 3 or higher ([5]; MM part 1a): 8% | grade 4 adverse events, subjects ([5]; MM part 1a): 31% | hypertension of grade 3 or higher ([5]; MM part 1a): 8% | neutropenia of grade 3 or higher ([5]; MM part 1a): 31% | related diarrhea ([5]; MM part 1a): 19% | related nausea ([5]; MM part 1a): 23% | related neutropenia ([5]; MM part 1a): 23% | treatment-emergent adverse events, subjects ([5]; MM part 1a QD2, 26 subjects): 96% | anemia, subjects ([5]; MM part 1a, any grade): 27% | diarrhea, subjects ([5]; MM part 1a, any grade): 31% | fatigue, subjects ([5]; MM part 1a, any grade): 27% | nausea, subjects ([5]; MM part 1a, any grade): 35% | neutropenia, subjects ([5]; MM part 1a, any grade): 31% | dose-limiting toxicity (DLT) reported ([5]; MM part 1a, 1 subject in the 240 mg/m^2 cohort, fatal): tumor lysis syndrome | exposures (Cmax and AUC) versus dose ([5]; MM part 1a, 25 subjects, preliminary): generally increased with increasing doses | fatal adverse events ([5]; MM part 1a, hepatic failure (50 mg/m^2, not related), tumor lysis syndrome (240 mg/m^2, related)): Two | hemolysis of whole blood (dog blood): cased hemolysis | Grade 3 adverse events, subjects ([6]; MM part 1b): 83% | adverse events considered related to AMG 176, subjects ([6]; MM part 1b): 83 %/a | adverse events leading to discontinuation of investigational product ([6]; MM part 1b): no adverse event led to discontinuation | fatal adverse events ([6]; MM part 1b): no fatal adverse events occurred | grade 4 adverse events, subjects ([6]; MM part 1b): 17% | hypertension of grade 3 or higher ([6]; MM part 1b): 33% | neutropenia of grade 3 or higher ([6]; MM part 1b): 67% | serious adverse events ([6]; MM part 1b): No serious adverse events were reported | adverse events, subjects ([6]; MM part 1b QW, 6 subjects): 83% | diarrhea, subjects ([6]; MM part 1b, any grade): 33% | fatigue, subjects ([6]; MM part 1b, any grade): 33% | hypertension, subjects ([6]; MM part 1b, any grade): 33% | nausea, subjects ([6]; MM part 1b, any grade): 50% | neutropenia, subjects ([6]; MM part 1b, any grade): 67% | exposures (Cmax and AUC) versus dose ([6]; MM part 1b, 6 subjects, preliminary): generally increased with increasing doses | IC50 (MM1S): 5.12 µM | half-life (Pharmacokinetics in rats): 19.5 h | IC50 (RL): > 20 µM

From patent US12622918B2, “Formulations and dosages for administering a compound that inhibits MCL1 protein” (Amgen Inc., priority 2019, dated 2026)
